The record followed here is patent publication US10738030B2, “Modulators of cystic fibrosis transmembrane conductance regulator” (Vertex Pharmaceuticals Incorporated, priority 2016, dated 2020).

This experiment has as its target T1, F508del (Homo sapiens, UniProt P13569, DEL508-508).
T1 construct: expressed in transfected cells
As to the kind of experiment: Membrane potential optical assay (FRET voltage-sensor dyes), identification of correction compounds. Type of experiment: cell-based. As to conditions: NIH3T3 cells stably expressing F508del, procedures described above; for Emax: maximum efficacy, read-out: Max Efficacy; for EC50: modulation of CFTR activity. The procedure:
(§1) NIH3T3 mouse fibroblasts stably expressing F508del are used for optical measurements of membrane potential. The cells are maintained at 37° C. in 5% CO2 and 90% humidity in Dulbecco's modified Eagle's medium supplemented with 2 mM glutamine, 10% fetal bovine serum, 1×NEAA, β-ME, 1× pen/strep, and 25 mM HEPES in 175 cm^2 culture flasks. For all optical assays, the cells were seeded at 12,000 cells/well in 384-well matrigel-coated plates and cultured for 18-24 hrs at 37° C. for the potentiator assay. For the correction assays, the cells are cultured at 37° C. with and without compounds for 18-24 hours.
Membrane potential optical methods for assaying F508del modulation properties of compounds.
The optical membrane potential assay utilized voltage-sensitive FRET sensors described by Gonzalez and Tsien (See Gonzalez, J. E. and R. Y. Tsien (1995) “Voltage sensing by fluorescence resonance energy transfer in single cells” Biophys J 69(4): 1272-80, and Gonzalez, J. E. and R. Y. Tsien (1997) “Improved indicators of cell membrane potential that use fluorescence resonance energy transfer” Chem Biol 4(4): 269-77) in combination with instrumentation for measuring fluorescence changes such as the Voltage/Ion Probe Reader (VIPR) (See, Gonzalez, J. E., K. Oades, et al. (1999) “Cell-based assays and instrumentation for screening ion-channel targets” Drug Discov Today 4(9): 431-439).
These voltage sensitive assays are based on the change in fluorescence resonant energy transfer (FRET) between the membrane-soluble, voltage-sensitive dye, DiSBAC2(3), and a fluorescent phospholipid, CC2-DMPE, which is attached to the outer leaflet of the plasma membrane and acts as a FRET donor. Changes in membrane potential (Vm) cause the negatively charged DiSBAC2(3) to redistribute across the plasma membrane and the amount of energy transfer from CC2-DMPE changes accordingly. The changes in fluorescence emission were monitored using VIPR™ II, which is an integrated liquid handler and fluorescent detector designed to conduct cell-based screens in 96- or 384-well microtiter plates.
To identify small molecules that correct the trafficking defect associated with F508del; a single-addition HTS assay format was developed. The cells were incubated in serum-free medium for 16 hrs at 37° C. in the presence or absence (negative control) of test compound. As a positive control, cells plated in 384-well plates were incubated for 16 hrs at 27° C. to “temperature-correct” F508del. The cells were subsequently rinsed 3× with Krebs Ringers solution and loaded with the voltage-sensitive dyes. To activate F508del, 10 μM forskolin and the CFTR potentiator, genistein (20 μM), were added along with Cl^−-free medium to each well. The addition of Cl^−-free medium promoted Cl^− efflux in response to F508del activation and the resulting membrane depolarization was optically monitored using the FRET-based voltage-sensor dyes.
• Bath Solution #1: (in mM) NaCl 160, KCl 4.5, CaCl2 2, MgCl2 1, HEPES 10, pH 7.4 with NaOH. • Chloride-free bath solution: Chloride salts in Bath Solution #1 (above) are substituted with gluconate salts. • CC2-DMPE: Prepared as a 10 mM stock solution in DMSO and stored at −20° C. • DiSBAC2(3): Prepared as a 10 mM stock in DMSO and stored at −20° C. Cell Culture
as §1, with “seeded at 30,000/well in 384-well” for “seeded at 12,000 cells/well in 384-well”, “cultured for 2 hrs at” for “cultured for 18-24 hrs at”, “37° C. before culturing at 27° C. for 24 hrs for the” for “37° C. for the”, “cultured at 27° C. or 37° C.” for “cultured at 37° C.”, “compounds for 16-24 hours.” for “compounds for 18-24 hours.”

T1 sequence (P13569 with tags, fused parts or gaps DEL508-508): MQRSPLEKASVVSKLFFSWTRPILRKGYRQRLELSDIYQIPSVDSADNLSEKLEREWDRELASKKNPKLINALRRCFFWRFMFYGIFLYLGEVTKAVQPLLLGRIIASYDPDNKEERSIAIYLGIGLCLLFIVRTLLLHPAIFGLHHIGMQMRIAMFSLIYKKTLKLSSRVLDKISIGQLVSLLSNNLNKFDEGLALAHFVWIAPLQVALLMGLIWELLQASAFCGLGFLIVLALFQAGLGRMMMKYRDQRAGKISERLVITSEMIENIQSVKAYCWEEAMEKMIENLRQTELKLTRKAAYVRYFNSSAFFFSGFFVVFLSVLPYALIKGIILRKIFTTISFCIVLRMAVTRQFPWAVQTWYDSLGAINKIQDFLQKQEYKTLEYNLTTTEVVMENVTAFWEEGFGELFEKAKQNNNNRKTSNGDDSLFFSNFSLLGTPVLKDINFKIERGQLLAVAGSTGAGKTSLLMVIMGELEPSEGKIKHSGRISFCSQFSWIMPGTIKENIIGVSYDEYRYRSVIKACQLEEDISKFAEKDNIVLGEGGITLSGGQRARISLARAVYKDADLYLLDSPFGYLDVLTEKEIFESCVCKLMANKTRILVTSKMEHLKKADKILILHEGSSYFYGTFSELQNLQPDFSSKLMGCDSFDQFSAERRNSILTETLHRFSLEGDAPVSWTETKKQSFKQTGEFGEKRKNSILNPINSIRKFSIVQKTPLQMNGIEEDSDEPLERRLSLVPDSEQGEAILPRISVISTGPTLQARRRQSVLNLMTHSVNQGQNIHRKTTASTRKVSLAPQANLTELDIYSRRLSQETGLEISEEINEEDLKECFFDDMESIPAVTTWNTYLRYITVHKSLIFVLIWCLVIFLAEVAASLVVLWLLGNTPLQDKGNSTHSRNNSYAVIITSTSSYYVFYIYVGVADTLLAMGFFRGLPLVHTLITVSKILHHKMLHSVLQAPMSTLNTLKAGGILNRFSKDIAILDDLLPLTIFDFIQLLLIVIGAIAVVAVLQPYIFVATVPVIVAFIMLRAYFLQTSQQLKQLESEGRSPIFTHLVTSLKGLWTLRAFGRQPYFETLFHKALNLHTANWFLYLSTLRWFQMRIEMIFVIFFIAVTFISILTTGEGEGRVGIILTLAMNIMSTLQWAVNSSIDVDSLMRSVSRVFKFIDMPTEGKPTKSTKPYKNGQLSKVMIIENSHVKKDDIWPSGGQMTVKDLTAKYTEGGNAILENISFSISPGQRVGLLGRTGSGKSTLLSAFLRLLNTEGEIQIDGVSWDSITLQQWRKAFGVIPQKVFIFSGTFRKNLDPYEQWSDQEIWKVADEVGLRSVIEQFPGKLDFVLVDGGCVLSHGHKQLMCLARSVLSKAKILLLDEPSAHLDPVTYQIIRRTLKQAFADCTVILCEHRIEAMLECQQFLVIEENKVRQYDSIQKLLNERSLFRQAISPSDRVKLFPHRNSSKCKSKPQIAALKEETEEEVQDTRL

Take `CC(C)COc1cc(F)cc(-c2ccc(C(=O)NS(=O)(=O)c3cccc(N)n3)c(N(C(C)C)C(C)C)n2)c1` [Compound 41, N-[(6-amino-2-pyridyl)sulfonyl]-2-(diisopropylamino)-6-(3-fluoro-5-isobutoxy-phenyl)pyridine-3-carboxamide]: the Emax was > 80% and the EC50 was < 3 µM.
On the same counts, the results for `C=CC(C)Oc1nc(-c2cc(F)cc(OCC(C)C)c2)ccc1C(=O)NS(=O)(=O)c1cccc(N)n1` (stereo not shown) [Compound 42, N-[(6-amino-2-pyridyl)sulfonyl]-6-(3-fluoro-5-isobutoxy-phenyl)-2-(1-methylallyloxy)pyridine-3-carboxamide] are > 80% and < 3 µM.
Turning to `C=CCOc1nc(-c2cc(F)cc(OCC(C)C)c2)ccc1C(=O)NS(=O)(=O)c1cccc(N)n1` [Compound 43, 2-allyloxy-N-[(6-amino-2-pyridyl)sulfonyl]-6-(3-fluoro-5-isobutoxy-phenyl)pyridine-3-carboxamide], the Emax lay within 30 to 80% and the EC50 is < 3 µM.
The matching figures for `CCC(C)(C)Oc1nc(-c2cc(F)cc(OCC(C)C)c2)ccc1C(=O)NS(=O)(=O)c1cccc(N)n1` [Compound 44, N-[(6-amino-2-pyridyl)sulfonyl]-2-(1,1-dimethylpropoxy)-6-(3-fluoro-5-isobutoxy-phenyl)pyridine-3-carboxamide]: > 80% and < 3 µM.
On the same counts, the results for `CC(C)Oc1nc(C(C)(C)C)ccc1C(=O)NS(=O)(=O)c1cccc(N)n1` [Compound 45, N-[(6-amino-2-pyridyl)sulfonyl]-6-tert-butyl-2-isopropoxy-pyridine-3-carboxamide] are 30 to 80% and 3 to 10 µM.
The matching figures for `CCN(CC)c1nc(-c2cc(F)cc(OCC(C)C)c2)ccc1C(=O)NS(=O)(=O)c1ccn[nH]1` [Compound 46, 2-(diethylamino)-6-(3-fluoro-5-isobutoxy-phenyl)-N-(1H-pyrazol-5-ylsulfonyl)pyridine-3-carboxamide]: 30 to 80% and < 3 µM.
Take `CCC(CC)Oc1nc(-c2cc(F)cc(OCC(C)C)c2)ccc1C(=O)NS(=O)(=O)c1cccc(N)n1` [Compound 47, N-[(6-amino-2-pyridyl)sulfonyl]-2-(1-ethylpropoxy)-6-(3-fluoro-5-isobutoxy-phenyl)pyridine-3-carboxamide]: the Emax is > 80% and the EC50 is < 3 µM.
On the same counts, the results for `CC(C)COc1cc(F)cc(-c2ccc(C(=O)NS(=O)(=O)c3cccc(N)n3)c(OCC(F)(F)F)n2)c1` [Compound 48, N-[(6-amino-2-pyridyl)sulfonyl]-6-(3-fluoro-5-isobutoxy-phenyl)-2-(2,2,2-trifluoroethoxy)pyridine-3-carboxamide] are 30 to 80% and 3 to 10 µM.
Turning to `C=C(C)COc1nc(-c2cc(F)cc(OCC(C)C)c2)ccc1C(=O)NS(=O)(=O)c1cccc(N)n1` [Compound 49, N-[(6-amino-2-pyridyl)sulfonyl]-6-(3-fluoro-5-isobutoxy-phenyl)-2-(2-methylallyloxy)pyridine-3-carboxamide], the Emax is > 80% and the EC50 is < 3 µM.
The matching figures for `CC(C)COc1cc(F)cc(-c2ccc(C(=O)NS(=O)(=O)c3ccn[nH]3)c(NCCC(C)(C)C)n2)c1` [Compound 50, 2-(3,3-dimethylbutylamino)-6-(3-fluoro-5-isobutoxy-phenyl)-N-(1H-pyrazol-5-ylsulfonyl)pyridine-3-carboxamide]: 30 to 80% and 3 to 10 µM.
For `COCC(C)(C)Oc1nc(-c2cc(F)cc(OCC(C)C)c2)ccc1C(=O)NS(=O)(=O)c1cccc(N)n1` [Compound 51, N-[(6-amino-2-pyridyl)sulfonyl]-6-(3-fluoro-5-isobutoxy-phenyl)-2-(2-methoxy-1,1-dimethyl-ethoxy)pyridine-3-carboxamide], the Emax fell in the range of 30 to 80% and the EC50 is < 3 µM.
For the compound `CC(C)COc1cc(F)cc(-c2ccc(C(=O)NS(=O)(=O)c3cccc(N)n3)c(N(C)CC(C)(C)C)n2)c1` [Compound 52, N-[(6-amino-2-pyridyl)sulfonyl]-2-[2,2-dimethylpropyl(methyl)amino]-6-(3-fluoro-5-isobutoxy-phenyl)pyridine-3-carboxamide], the Emax is > 80% and the 50% effective concentration (EC50) is < 3 µM.
As to `CCN(CC)c1nc(-c2cc(F)cc(OCC(C)C)c2)ccc1C(=O)NS(=O)(=O)c1cccc(N)n1` [Compound 53, N-[(6-amino-2-pyridyl)sulfonyl]-2-(diethylamino)-6-(3-fluoro-5-isobutoxy-phenyl)pyridine-3-carboxamide], the Emax was > 80% and the EC50 was < 3 µM.
On the same counts, the results for `CC(C)COc1cc(F)cc(-c2ccc(C(=O)NS(=O)(=O)c3cccc(N)n3)c(NC(C)C(C)C)n2)c1` (stereo not shown) [Compound 54, N-[(6-amino-2-pyridyl)sulfonyl]-2-(1,2-dimethylpropylamino)-6-(3-fluoro-5-isobutoxy-phenyl)pyridine-3-carboxamide] are 30 to 80% and 3 to 10 µM.
On the same counts, the results for `CC(C)COc1cc(F)cc(-c2ccc(C(=O)NS(=O)(=O)c3cccc(N)n3)c(OCCOC(C)C)n2)c1` [Compound 55, N-[(6-amino-2-pyridyl)sulfonyl]-6-(3-fluoro-5-isobutoxy-phenyl)-2-(2-isopropoxyethoxy)pyridine-3-carboxamide] are 30 to 80% and < 3 µM.
Regarding `CCCC(C)Oc1nc(-c2cc(F)cc(OCC(C)C)c2)ccc1C(=O)NS(=O)(=O)c1cccc(N)n1` (stereo not shown) [Compound 56, N-[(6-amino-2-pyridyl)sulfonyl]-6-(3-fluoro-5-isobutoxy-phenyl)-2-(1-methylbutoxy)pyridine-3-carboxamide], the Emax was > 80% and the EC50 is < 3 µM.
The matching figures for `CC(C)COc1cc(F)cc(-c2ccc(C(=O)NS(=O)(=O)c3cccc(N)n3)c(OCC(C)(F)F)n2)c1` [Compound 57, N-[(6-amino-2-pyridyl)sulfonyl]-2-(2,2-difluoropropoxy)-6-(3-fluoro-5-isobutoxy-phenyl)pyridine-3-carboxamide]: 30 to 80% and < 3 µM.
The matching figures for `CC(C)COc1cc(F)cc(-c2ccc(C(=O)NS(=O)(=O)c3cccc(N)n3)c(NC(C)(C)C)n2)c1` [Compound 58, N-[(6-amino-2-pyridyl)sulfonyl]-2-(tert-butylamino)-6-(3-fluoro-5-isobutoxy-phenyl)pyridine-3-carboxamide]: > 80% and < 3 µM.
On the same counts, the results for `CC[C@@H](C)Oc1nc(-c2cc(F)cc(OCC(C)C)c2)ccc1C(=O)NS(=O)(=O)c1cccc(N)n1` [Compound 59, N-[(6-amino-2-pyridyl)sulfonyl]-6-(3-fluoro-5-isobutoxy-phenyl)-2-[(1R)-1-methylpropoxy]pyridine-3-carboxamide] are 30 to 80% and < 3 µM.
Regarding `COCCOc1nc(-c2cc(F)cc(OCC(C)C)c2)ccc1C(=O)NS(=O)(=O)c1cccc(N)n1` [Compound 60, N-[(6-amino-2-pyridyl)sulfonyl]-6-(3-fluoro-5-isobutoxy-phenyl)-2-(2-methoxyethoxy)pyridine-3-carboxamide], the Emax was 30 to 80% and the concentration for a half-maximal effect (EC50) is < 3 µM.
